Reference: PubChem BioAssay AID1996
≈ marks a conversion by molar mass, not a printed value.

conditions: buffer; pH 7.4; 200.0 µM

Row | Structure (SMILES) | solubility kinetic [µg/mL]
1 | CC(C)(C)C(=O)O/N=C(\N)c1ccc([N+](=O)[O-])s1 | 8.2 (≈ 30.2 µM)
2 | Cc1nc(SCc2cccc(C(=O)O)c2)nc2c1CCCC2 | > 47.2
3 | O=C(Nc1ccccn1)c1sc2cccc(F)c2c1Cl | < 0.3
4 | Cc1ccc(S(=O)(=O)Nc2ccc(F)cc2)cc1C(=O)N1CCOCC1 | > 56.8
5 | CCOc1ccc(-n2c(C)c(C(=O)OC)c3cc(O)ccc32)cc1 | < 0.7
6 | CCCC(=O)Nc1c(-c2cccc(C)c2)c(=O)c2ccccc2n1C | 13.1 (≈ 39.2 µM)
7 | O=[n+]1cc(-c2ccc(Cl)cc2)n([O-])c2c1CCC2 | > 39.4
8 | COC(=O)c1ccc(OCC2NCCc3cc(OC)c(OC)cc32)cc1 (stereo unspecified) | > 53.6
9 | COC(=O)CN(c1nc(C)c(Br)c(OC)n1)S(=O)(=O)c1ccccc1 | 14.4 (≈ 33.5 µM)
10 | CC1NC(C)(C)Cc2c1ccc1ccccc21.Cl (stereo unspecified) | 37.6
11 | Cc1ccc(NC(=O)C23CCC(C)(C(=O)[C@H]2Br)C3(C)C)cc1 (stereo partly specified) | 43.2 (≈ 119 µM)
12 | CCOC(=O)C1CCN(S(=O)(=O)c2ccc(Cl)nc2)CC1 | 47.3 (≈ 142 µM)
13 | COc1ccc(S(=O)(=O)NCC(=O)NC2CC2)cc1OC | > 47.2
14 | O=C(COC(=O)c1c(Cl)cccc1Cl)NCC1CCCO1 (stereo unspecified) | > 49.8
15 | CN1CCN(C(=O)c2cc3ccccc3[nH]2)CC1 | > 36.5
16 | COc1cc(/C=C/C(=O)OCC(=O)NCCc2ccc(F)cc2)ccc1OC(F)F | 4 (≈ 9.45 µM)
17 | Cc1[nH]c2ccccc2c1/C=C(\C#N)C(=O)NC1CC1 | 6.8 (≈ 25.6 µM)
18 | CC1CCC(NS(=O)(=O)c2cccc3nsnc23)CC1 (stereo unspecified) | > 46.7
19 | Cc1cnc(C(=O)OCC(=O)NC(C)c2ccccc2)cn1 (stereo unspecified) | > 44.9
20 | CC(=C1C(=O)c2ccccc2C1=O)N1CCN(c2ccc(F)cc2)CC1 | > 52.6
21 | O=C(CNC(=O)c1ccc(Br)cc1)NC1CC1 | > 44.6
22 | Cc1ccc(NC(=O)C/C(N)=N/O)cc1Cl | > 36.3
23 | CCN(CC)CC(O)COC(c1ccccc1)c1ccccc1 (stereo unspecified) | 41.8 (≈ 133 µM)
24 | CCCn1cnc2cc(NC(=O)c3cccs3)ccc21 | > 42.8
25 | NC1=C(c2ccccc2)C(=O)NC1=O | > 28.2

Row | Structure (SMILES) | solubility kinetic [µg/mL]
26 | Cc1cc(/C=C2\SC(=O)NC2=O)c(C)n1-c1ccc(N(C)C)cc1 | < 0.2
27 | O=C(CCSCc1cccc(F)c1)NCCc1ccccc1 | 18.4 (≈ 58 µM)
28 | CCCCN1C(=O)C(C)=C(C)C1OCCc1ccc(OC)c(OC)c1 (stereo unspecified) | 50.5 (≈ 145 µM)
29 | COc1ccc(CCNC(=O)c2ccc(Br)cc2)cc1 | 1.3 (≈ 3.89 µM)
30 | CCCCCC(=O)NC(=S)Nc1ccc2oc(=O)ccc2c1 | 1.5 (≈ 4.71 µM)
31 | Cc1cc(C)c(C)c(S(=O)(=O)N2CCCN(C)CC2)c1C | > 46.6
32 | Cc1sc2nc(C)n(/N=C/N(C)C)c(=O)c2c1C | > 39.7
33 | COc1ccc2nc(C)cc(NCc3ccc(F)cc3)c2c1 | > 44.5
34 | Cc1ccc(N=Cc2c(O)n(C)c(=O)n(C)c2=O)cc1 | 6.1 (≈ 22.3 µM)
35 | Cc1ccc(C(=O)O)c(C(=O)Nc2nc3ccccc3s2)c1 | > 46.9
36 | CN(C)N1C(=O)CC(N2CCCCC2)C1=O (stereo unspecified) | > 33.8
37 | CC(C)C(=O)NC(c1ccc(Cl)cc1Cl)c1ccc2cccnc2c1O (stereo unspecified) | 2.8 (≈ 7.19 µM)
38 | CCCNC(=O)c1cc(-c2ccc3c(c2)OCO3)on1 | 2.9 (≈ 10.6 µM)
39 | CC(=O)C1=C(O)C(=O)N(c2ccccn2)C1c1cccc(F)c1 (stereo unspecified) | > 46.8
40 | CC(C)n1cc(C(N)=S)c(=O)n(Cc2ccccc2)c1=O | 9.1 (≈ 30 µM)
41 | CCC1CCCCN1C(=O)COC(=O)c1cc(=O)[nH]c2ccccc12 (stereo unspecified) | > 51.4
42 | CCO/C([O-])=N/c1c[n+](N2CCOCC2)no1 | > 36.3
43 | N#Cc1c(N2CCOCC2)nsc1-c1ccc(C(F)(F)F)cc1 | < 0.2
44 | CC(=O)N(C)c1ccc(N=C2C(=O)Nc3ccccc32)cc1 | > 44
45 | Cc1ccc(C(=O)NCC(=O)OCC(=O)NCC(F)(F)F)cc1 | 47.1 (≈ 142 µM)
46 | N#Cc1ccc(-c2nc3cc(Cl)ccc3c(=O)n2O)cc1 | 44 (≈ 148 µM)
47 | Clc1ccccc1C1NCc2ccccc2-n2cccc21 (stereo unspecified) | 1.4 (≈ 4.75 µM)
48 | CCOC(=O)c1nsnc1NCCCl | 22.7 (≈ 96.3 µM)
49 | CN(C)c1ccc(NC(=O)c2cccc([N+](=O)[O-])c2)c2ccccc12 | 15.1 (≈ 45 µM)
50 | O=C(OCc1ccc([N+](=O)[O-])cc1)C1CC(=O)N(Cc2ccccc2)C1 (stereo unspecified) | > 53.2

Row | Structure (SMILES) | solubility kinetic [µg/mL]
51 | CCOC(=O)c1sc2nc(C)nc(N3CCN(S(=O)(=O)c4ccccc4)CC3)c2c1C | 2.5 (≈ 5.43 µM)
52 | NC1=NC(=O)/C(=C/c2ccc(Cl)cc2Cl)S1 | 1.3 (≈ 4.76 µM)
53 | COc1ccc(NC(=O)Nc2cnccn2)cc1OC | > 41.1
54 | COc1ccc(C(CNC(=O)c2ccc(S(=O)(=O)N3CC(C)CC(C)C3)cc2)N(C)C)cc1 (stereo unspecified) | > 71
55 | O=C(NCCCNC(=O)c1ccc(Cl)cc1Cl)c1ccccn1 | 51.8 (≈ 147 µM)
56 | Cc1ccc(S(=O)(=O)CC(=O)Nc2cc(C)on2)cc1 | 37.6 (≈ 128 µM)
57 | COc1ccc(S(=O)(=O)NC2CCCC2)cc1C(N)=O | > 44.8
58 | O=C1OCc2ccc(NC(=O)C3CC3)cc21 | > 32.6
59 | O=C(CCNC(=O)c1ccco1)Nc1ccc(C(F)(F)F)cc1 | 23.4 (≈ 71.7 µM)
60 | COCCN(C(=S)Nc1cccc(C)c1)C(C)c1cccnc1 (stereo unspecified) | 48.2 (≈ 146 µM)
61 | CC1CN(C(=O)COc2ccc3ccccc3c2)CC(C)O1 (stereo unspecified) | > 44.9
62 | Cc1ccc(-c2cc(C(=O)N3CCC(C)CC3)c3ccccc3n2)cc1 | 6.6 (≈ 19.2 µM)
63 | CCc1ccccc1NC(=O)c1cc(-c2ccco2)on1 | 3.1 (≈ 11 µM)
64 | CC(=O)c1ccc(N=C2NC(=O)C(CO)(CO)S2)cc1 | 43.2 (≈ 147 µM)
65 | O=C1CCCN1CC1CCN(Cc2nc(CC3CC3)no2)CC1 | 42.9 (≈ 135 µM)
66 | Cc1ccc(C(=O)NCCC(=O)Nc2ccccc2C)cc1 | > 44.5
67 | CCc1nc(SCc2ccccn2)[nH]c(=O)c1C | > 39.2
68 | Cc1cc(NC(=O)CN2C(=O)NC(C)(CC(C)C)C2=O)no1 (stereo unspecified) | > 46.3
69 | COc1ccccc1NC(=O)C1CCN(S(C)(=O)=O)CC1 | > 46.9
70 | Cc1cccc(C(=O)OCC(=O)N2CCCCCC2)c1O | 36 (≈ 124 µM)
71 | CC1(C)C2CCC(C2)C1(C)NC(=O)CN1CCCC1.Cl (stereo unspecified) | > 45.1
72 | COc1ccc(NC(=O)COC(=O)c2cc(S(=O)(=O)N3CCCC3)ccc2O)cc1 | > 65.2
73 | CCCCCCC(=O)Nc1ccc(Br)cn1 | 1.6 (≈ 5.61 µM)
74 | CC(C)OC(=O)Cn1cc(C#N)c2ccccc21 | > 36.3
75 | O=C(O)CC1(CC(=O)Nc2ccccc2N2CCOCC2)CCCC1 | > 52

Row | Structure (SMILES) | solubility kinetic [µg/mL]
76 | CCCC(=O)O/N=C(\c1ccccc1)c1ccncc1 | 38.4 (≈ 143 µM)
77 | COCCCn1c(=O)c2ccccc2n(Cc2ccccc2C)c1=O | > 50.8
78 | CCc1cccc(CC)c1N(COC)C(=O)Cn1cnc2ccccc21 | > 52.7
79 | CCc1cccc(NC(=S)Nc2cccc3ccccc23)c1 | 3.8 (≈ 12.4 µM)
80 | CN(C(=O)c1cc2ccccc2o1)c1c(N)n(Cc2ccccc2)c(=O)[nH]c1=O | > 58.6
81 | S=C(NCc1ccco1)N1CCC(c2nc3ccccc3o2)CC1 | 11.3 (≈ 33.1 µM)
82 | COc1ccc(S(=O)(=O)NCCN2CCNC2=O)cc1OC | 47.9 (≈ 145 µM)
83 | CCOC(=O)C(CC(=O)O)NCc1ccco1 (stereo unspecified) | 34.3 (≈ 142 µM)
84 | O=c1oc(Nc2cccc(Cl)c2)nc2ccccc12 | 0.5 (≈ 1.83 µM)
85 | S=c1[nH]ccn1-c1ccc(Cl)cc1 | 29.2 (≈ 139 µM)
86 | Cc1cc(C)cc(NC(=O)c2sc3nc(C)cc(C)c3c2N)c1 | 0.3 (≈ 0.922 µM)
87 | CSc1sccc1/C=N/O | 18.2 (≈ 105 µM)
88 | COc1ccc(N=Cc2c(O)n(C)c(=O)[nH]c2=O)cc1 | 2.2 (≈ 7.99 µM)
89 | COc1ccc(Cn2c(=O)oc3ccc(C)cc32)cc1 | 1.2 (≈ 4.46 µM)
90 | CCCC12CN3CCN(C1)CC(CCC)(C3)C2=O | 30.9 (≈ 123 µM)
91 | CCOC(=O)c1c(C)[nH]c(C(=O)N2CCN(CC)CC2)c1C | > 46.1
92 | O=C1CCc2ccccc2N1Cc1ccccc1 | 32.5 (≈ 137 µM)
93 | C=CCn1c(NCc2ccccc2OC)nc2ccccc21 | 30.2 (≈ 103 µM)
94 | CC(=O)N1C(C(=O)O)Cc2c([nH]c3ccccc23)C1C (stereo unspecified) | > 40.8
95 | CC(=O)Nc1ccc2c(c1)N(C(C)=O)c1ccccc1CC2 | > 44.2
96 | CC(=O)c1sc(C(C)(C)C)cc1NC(=O)/C=C/C(=O)O | 40 (≈ 135 µM)
97 | O=S(=O)(c1ccc(-c2ccon2)s1)N1CCOCC1 | > 45.1
98 | Cc1cccc(N2C(=O)CSC23CCCCC3)c1 | 20.3 (≈ 77.7 µM)
99 | CCN1CCN(Cc2cc(=O)oc3ccc(C)cc23)CC1 | > 43
100 | CCCNC(=O)CN1CCC(c2nc3ccccc3[nH]2)CC1 | 34 (≈ 113 µM)

Row | Structure (SMILES) | solubility kinetic [µg/mL]
101 | Fc1ccc(NC2=NCCCCC2)cc1 | > 30.9
102 | Cc1ccc(C(=O)OCC(=O)NC2CCCc3ccccc32)o1 (stereo unspecified) | 13.1 (≈ 41.8 µM)
103 | COc1ccc(Cl)cc1C(=O)Nc1nc(C)cc(C)n1 | > 43.8
104 | Cc1cccc(N2CCN(C(=O)c3cc4cc(F)ccc4[nH]3)CC2)c1C | 0.6 (≈ 1.71 µM)
105 | Br.C=CCn1c(=N)n(CC(=O)c2ccccc2)c2ccccc21 | > 55.8
106 | COc1ccc(CCC(=O)NCc2ccc3c(c2)OCO3)cc1 | 23.1 (≈ 73.7 µM)
107 | CCOc1ncccc1C(=O)OCC(=O)Nc1ccc2c(c1)CCC2 | 8.1 (≈ 23.8 µM)
108 | Cc1ccc(NC(=O)N2C3CCCC2CC(NC(=O)C2CC2)C3)cc1 (stereo unspecified) | 9.4 (≈ 27.5 µM)
109 | COc1ccc2c(c1)-c1nc(/N=C/c3ccc(O)cc3)sc1CC2 | 34 (≈ 101 µM)
110 | O=C(NCC(O)c1ccccc1)c1ccccc1 (stereo unspecified) | > 36.2
111 | O=C(CCCC(=O)c1ccccc1)NCCc1ccccc1F | 44.1 (≈ 141 µM)
112 | CC(Sc1ccccc1F)C(=O)Nc1cccc(S(=O)(=O)N2CCOCC2)c1 (stereo unspecified) | > 63.7
113 | N#C/C(=C\c1ccc(O)c(Br)c1)C(=O)N1CCCCC1 | > 50.3
114 | O=C(COc1ncnc2sccc12)Nc1ccc(F)cc1F | > 48.2
115 | CC(C)CC(C)NC(=O)c1ccc(C(F)(F)F)cc1 (stereo unspecified) | 4.9 (≈ 17.9 µM)
116 | Cc1nc2ccccc2c(=O)n1-c1ccc(F)cc1F | 36.9 (≈ 136 µM)
117 | CCCc1cc(=O)[nH]c(SCCc2ccccc2)n1 | 17.4 (≈ 63.4 µM)
118 | COC(=O)c1ccsc1NC(=O)CN1CCN(c2ncccn2)CC1 | 4.1 (≈ 11.3 µM)
119 | Cc1ccc(N(CC(=O)N2CCCC2)S(C)(=O)=O)cc1C | > 46.6
120 | CNc1snc(C)c1C(=O)OC(C)C(=O)Nc1cccc(C)c1 (stereo unspecified) | 4.8 (≈ 14.4 µM)
121 | O=C(N/N=C/c1ccncc1)NC1CCCCC1 | > 36.9
